From US11813279B2, “Compositions for cancer therapy and methods” (AIM IMMUNOTECH INC., priority 2018, dated 2023)
Where two headings read alike, the source gives them in different places. Marks after values point to notes of the source that are not given here.

Legend:
pancreatic carcinoma [1] = assay: Second line therapy following progression on FOLFIRINOX (literature studies); type: in vivo, human; conditions: Overall (mean)
From the text: Overall Survival (OS) increased from 6.8 months with Gemcitabine to 11.1 months with FOLFIRINOX (p<0.001). However, the Complete Response Rate (CR) was only 0.6%.

[2] = test system: locally advanced and metastatic pancreatic carcinoma; conditions: first line therapy; n = 171 per arm; cited from earlier work
pancreatic carcinoma [3] = conditions: second line, cited from earlier work
pancreatic tumors = type: in vivo, mice; conditions: n = 8 each
From the text: This is highly relevant for improving the likelihood of an antitumor response to checkpoint blockade.
See, FIG. 4, panels labeled “Time-to-tumor progression.”

[4] = test system: human bladder tumor xenografts; assay: Human bladder tumor xenografts in nude mice; type: in vivo
[5] = test system: human renal cell carcinoma xenografts (786-0); assay: Human renal cell carcinoma (786-0) xenografts in nude mice; type: in vivo; conditions: monotherapy
[6] = test system: human renal cell carcinoma xenografts (786-0); conditions: Hubbell, 1990, cited from earlier work
B16-F10 melanoma tumors = conditions: Day 30, n = 10; for Number of Complete Responses (CR): RECIST v1.1
Procedure: Rintatolimod together with anti-PD-L1 antibodies were tested for anti-tumor activity against established subcutaneous B16 melanoma tumors in C57BL/6 mice. Mice (10 animals per group) were inoculated with 0.4×10E6 B16-F10 tumor cells in their shaved rear flanks. Seven days later (when tumors reached 0.3 to 0.5 cm in their largest diameter), mice were randomized for tumor sizes, and individually tagged and were allocated to the following six treatment groups: • No treatment (negative controls) • Rintatolimod alone 100 μg/dose 4× • Rintatolimod alone 250 μg/dose 4× • Anti-PD-L1 mAb alone • Rintatolimod 100 μg/dose 4× plus anti-PD-L1 mAb • Rintatolimod 250 μg/dose 4× plus anti-PD-L1 mAb
Rintatolimod was injected intravenously at 100 or 250 micrograms/dose and was repeated 4 times, 5 days apart. Anti-PD-L1 mAb (clone 10F.9G2, BioXCell) was administered intraperitoneally on Days 1 and 3 after each rintatolimod injection at a 200 microgram/dose. Tumors were measured 3 times per week using a set of calipers, taking measurement of 2 opposing diameters and were recorded as tumor areas.
Results were presented as tumor sizes for individual mice throughout time of therapy, average tumor size in each group and survival up to Day 30 (time to euthanasia).
[sequence] and anti-PD-L1 antibodies were tested for anti-tumor activity against established subcutaneous B16 melanoma tumors in C57BL/6 mice. Briefly, mice (10 animals per group) were inoculated with 0.4×10E6 (i.e., 400,000) B16-F10 tumor cells in their shaved rear flanks. Seven days later, mice were randomized to six treatment groups as follows: (Group 1) No treatment (negative controls); (Group 2) [sequence] alone 100 μg/dose 4λ; (Group 3) [sequence] alone 250 μg/dose 4λ; (Group 4) Anti-PD-L1 mAb alone; (Group 5) [sequence] 100 μg/dose 4× plus anti-PD-L1 mAb; (Group 6) [sequence] 250 μg/dose 4× plus anti-PD-L1 mAb. mAb refers to monoclonal antibody.
[sequence] was injected IV at 100 or 250 μg/dose 4 times, 5 days apart. Anti-PD-L1 mAb was administered IP on Days 1 and 3 after each [sequence] dose at 200 μg/dose. Tumors were measured 3 times per week using calipers, measuring 2 opposing diameters. […] Results were presented as tumor sizes for individual mice throughout time of therapy up to Day 30.

Question: With `Nc1ccn([C@@H]2O[C@H](CO)[C@@H](O)C2(F)F)c(=O)n1` [Gemcitabine] as the molecule, how does the “Partial Response Rates (PR) (%)” value (pancreatic carcinoma [1]; weighted average) read?
Answer: The value was 6.4%*.

Question: And the “Progression Free Survival (PFS) (months)” value (pancreatic carcinoma [1]; weighted average)?
Answer: Its value is 2.24* months.

Question: And the “Overall Survival (OS) (months)” value (pancreatic carcinoma [1]; weighted average based on n in each study)?
Answer: The value was 4.05* months.

Question: What about the “Complete Response Rates (CR) (%)” value [2] of the same molecule?
Answer: The value was “(0) %”.

Question: And the “Complete Response Rates (CR) n” value [2]?
Answer: Its value is 0 n.

Question: And the “Overall Survival (OS) (months)” value [2]?
Answer: The value was 6.8 months.

Question: What about the “Partial Response Rates (PR) (%)” value [2] of the same molecule?
Answer: The value was “(9.4) %”.

Question: What about the “Partial Response Rates (PR) n” value [2] of the same molecule?
Answer: The value was 16 n.

Question: And the “Progression Free Survival (PFS) (months)” value [2]?
Answer: Its value is 3.3 months.

Question: And the “Progression Free Survival (PFS) (months)” value (pancreatic carcinoma [3]; Gilabert, et al. 2017, 72 patients)?
Answer: The value was 2.5 months.

Question: And the “Overall Survival (OS) (months)” value (pancreatic carcinoma [3]; Viaud, et al 2017, 96 patients)?
Answer: The value was 3.7 months.

Question: And the “Progression Free Survival (PFS) (months)” value (pancreatic carcinoma [3]; Viaud, et al 2017)?
Answer: Its value is 2.1 months.

Question: What about the “Overall Survival (OS) (months)” value (pancreatic carcinoma [3]; da Rocha, et al. 2015, 20 patients) of the same molecule?
Answer: Its value is 5.7 months.

Question: What about the “Progression Free Survival (PFS) (months)” value (pancreatic carcinoma [3]; da Rocha, et al. 2015) of the same molecule?
Answer: Its value is 2.0 months.

Question: With “polyriboinosinic: polyribocytidylic(12:1)uridylic acid” as the molecule, how does the “Increased Survival Over Control” value (pancreatic tumors; difference to control (33)) read?
Answer: Its value is 0 days.

Question: And the “Time to Progression Median-Days” value (pancreatic tumors; initial results)?
Answer: The value was 33 days.

Question: What about the “growth of human bladder tumor xenografts” value [4] of the same molecule?
Answer: The value was “significantly inhibited”.

Question: And the tumor regression [5]?
Answer: Its tumor regression is “tumor regression was observed in each mouse”.

Question: What about the “mice free of residual tumor” value ([5]; while 100% of the control group had died) of the same molecule?
Answer: Its value is 90%.

Question: And the tumor growth inhibition ([6]; p<0.001)?
Answer: Its tumor growth inhibition is “statistically significant”.

Question: And the survival ([6]; p<0.002)?
Answer: The survival was “statistically significant”.

Question: What about the “Number of Partial Responses (PR)” value (B16-F10 melanoma tumors; rintatolimod 100 μg/dose 4× IV) of the same molecule?
Answer: Its value is 0.

Question: What about the “Total # Tumor Responses CR + PR” value (B16-F10 melanoma tumors; rintatolimod 100 μg/dose 4× IV) of the same molecule?
Answer: The value was 0.

Question: What about the “Number of Complete Responses (CR)” value (B16-F10 melanoma tumors; rintatolimod 100 μg/dose 4× IV) of the same molecule?
Answer: The value was 0.

Question: And the “Number of Partial Responses (PR)” value (B16-F10 melanoma tumors; rintatolimod 250 μg/dose 4× IV)?
Answer: The value was 0.

Question: What about the “Total # Tumor Responses CR + PR” value (B16-F10 melanoma tumors; rintatolimod 250 μg/dose 4× IV) of the same molecule?
Answer: The value was 0.

Question: What about the “Number of Complete Responses (CR)” value (B16-F10 melanoma tumors; rintatolimod 250 μg/dose 4× IV) of the same molecule?
Answer: Its value is 0.
